In brackets after ≈: the same amount, converted by molar mass. Counter-ions that a name gives are not always drawn. Like-named read-outs stand apart in the source and are kept apart here.
Tests used:
[1] = tested on: E. coli ATCC 10536; experiment: Antibacterial activity (MIC), standard agar dilution streak method; type: cell-based, Escherichia coli; settings: for MIC: Escherichia coli, ATCC10536, read-out: Minimum inhibitory concentration
Method: (§1) The antibacterial activities of the compounds of the present invention were assayed by the standard agar dilution streak method against Gram-positive and Gram-negative bacteria [Chemotherapy, 22, 1126 (1974)].

[2] = tested on: P. aeruginosa IFO 12689; experiment: as above; type: cell-based, Pseudomonas aeruginosa; settings: for MIC: Pseudomonas aeruginosa, IFO12689, P. aeruginosa IFO 12689, read-out: Minimum inhibitory concentration
Method: as §1

[3] = tested on: S. aureus Terajima; experiment: as above; type: cell-based, Staphylococcus aureus; settings: S. aureus Terajima; for MIC: Staphylococcus aureus, read-out: Minimum inhibitory concentration
Method: as §1

[4] = tested on: Bacillus subtilis PCI 219; experiment: as above; type: cell-based; settings: PCI219; for MIC: Bacillus subtilis PCI 219, read-out: Minimum inhibitory concentration
Method: as §1

[5] = tested on: Pseudomonas aeruginosa V-1; experiment: as above; type: cell-based; settings: read-out: Minimum inhibitory concentration
Method: as §1

[6] = tested on: Yersinia enterocolitica IID 981; experiment: as above; type: cell-based; settings: for MIC: read-out: Minimum inhibitory concentration
Method: as §1

[7] = tested on: Escherichia coli NIHJ JC-2; experiment: as above; type: cell-based; settings: for MIC: read-out: Minimum inhibitory concentration
Method: as §1

[8] = tested on: Enterobacter cloacae IID 977; experiment: as above; type: cell-based; settings: for MIC: read-out: Minimum inhibitory concentration
Method: as §1

[9] = tested on: Citrobacter freundii IID 976; experiment: as above; type: cell-based; settings: for MIC: read-out: Minimum inhibitory concentration
Method: as §1

[10] = tested on: S. epidermidis IID 866; experiment: as above; type: cell-based; settings: for MIC: Staphylococcus epidermidis, IID866, read-out: Minimum inhibitory concentration
Method: as §1

[11] = tested on: Alcaligenes faecalis 0104002; experiment: as above; type: cell-based; settings: for MIC: read-out: Minimum inhibitory concentration
Method: as §1

[12] = tested on: P. morganii IID 602; experiment: as above; type: cell-based; settings: for MIC: Morganella morganii, IID602, P. morganii IID 602, read-out: Minimum inhibitory concentration
Method: as §1

[13] = tested on: Acinetobacter anitratus IID 876; experiment: as above; type: cell-based; settings: for MIC: Acinetobacter calcoaceticus, IID876, read-out: Minimum inhibitory concentration
Method: as §1

[14] = tested on: Proteus vulgaris 3167; experiment: as above; type: cell-based; settings: for MIC: read-out: Minimum inhibitory concentration
Method: as §1

[15] = tested on: P. mirabilis IID 994; experiment: as above; type: cell-based; settings: Proteus mirabilis, IID994; P. mirabilis IID 994; read-out: Minimum inhibitory concentration
Method: as §1

[16] = tested on: Serratia marcescens IID 618; experiment: as above; type: cell-based; settings: for MIC: read-out: Minimum inhibitory concentration
Method: as §1

[17] = tested on: Staphylococcus aureus 209 p; experiment: as above; type: cell-based; settings: Staphylococcus aureus 209 p; read-out: Minimum inhibitory concentration
Method: as §1

[18] = tested on: Salmonella enteritidis IID 604; experiment: as above; type: cell-based; settings: Salmonella enteritidis IID 604; for MIC: Salmonella enterica, read-out: Minimum inhibitory concentration
Method: as §1

[19] = tested on: Klebsiella pneumoniae IFO 3512; experiment: as above; type: cell-based; settings: for MIC: read-out: Minimum inhibitory concentration
Method: as §1

[20] = tested on: Shigella sonnei IID 969; experiment: microbe, parasite or virus in culture; type: cell-based; settings: for MIC: Shigella sonnei
Method: as §1

[21] = Yersinia enterocolitica, IID981, Yersinia enterocolitica IID 981
[22] = Escherichia coli, NIHJJC2, Escherichia coli NIHJ JC-2
[23] = IID977, Enterobacter cloacae IID 977
[24] = Citrobacter freundii, IID976, Citrobacter freundii IID 976
[25] = Alcaligenes faecalis, 0104002, Alcaligenes faecalis 0104002
[26] = Proteus vulgaris, 3167, Proteus vulgaris 3167
[27] = Serratia marcescens, IID618, Serratia marcescens IID 618
[28] = Klebsiella pneumoniae, IFO3512, Klebsiella pneumoniae IFO 3512
[29] = IID969, Shigella sonnei IID 969, read-out: Minimum inhibitory concentration
[30] = Enterobacter cloacae, IID977, Enterobacter cloacae IID 977

Row | Compound | MIC [1] [µg/mL] | MIC [2] [µg/mL] | MIC [3] [µg/mL] | MIC [4] [µg/mL] | MIC ([5]; V1, Pseudomonas aeruginosa V-1) [µg/mL] | MIC [6, 21] [µg/mL] | MIC [7, 22] [µg/mL] | MIC [8, 23] [µg/mL] | MIC [9, 24] [µg/mL] | MIC [10] [µg/mL] | MIC [11, 25] [µg/mL] | MIC [12] [µg/mL] | MIC [13] [µg/mL] | MIC [14, 26] [µg/mL] | MIC [15] [µg/mL] | MIC [16, 27] [µg/mL] | MIC [17] [µg/mL] | MIC [18] [µg/mL] | MIC [19, 28] [µg/mL] | MIC [20, 29] [µg/mL] | other results
1 | C=CCN1CCN(c2c(F)cc3c(=O)c(C(=O)O)cn(CC)c3c2F)CC1 [Example 6, 7-(4-Allyl-1-piperazinyl)-1-ethyl-6,8-difluoro-1,4-dihydro-4-oxoquinoline-3-carboxylic acid] | 0.39 (≈ 1.03 µM) | 25 (≈ 66.2 µM) | 0.78 (≈ 2.07 µM) | 0.1 (≈ 0.265 µM) | 12.5 (≈ 33.1 µM) | 0.78 (≈ 2.07 µM) | 0.1 (≈ 0.265 µM) | 1.56 (≈ 4.13 µM) | 0.78 (≈ 2.07 µM) | 0.78 (≈ 2.07 µM) | 3.13 (≈ 8.29 µM) | 0.78 (≈ 2.07 µM) | 0.78 (≈ 2.07 µM) | 0.2 (≈ 0.53 µM) | 0.39 (≈ 1.03 µM) | 1.56 (≈ 4.13 µM) | 0.78 (≈ 2.07 µM) | 1.56 (≈ 4.13 µM) | ≤ 0.05 | 0.2 (≈ 0.53 µM) | 
2 | CCn1cc(C(=O)O)c(=O)c2cc(F)c(N3CCC(O)CC3)c(F)c21 [Example 16, 1-Ethyl-6,8-difluoro-1,4-dihydro-7-(4-hydroxy-1-piperidinyl)-4-oxoquinoline-3-carboxylic acid silver salt] |  |  |  |  | 3.13 |  |  |  |  |  |  |  |  |  | 0.39 |  | 0.2 |  |  |  | Minimum inhibitory concentration [1]: 0.78 µg/mL; Minimum inhibitory concentration ([2]; P. aeruginosa IFO 12689): 25 µg/mL; Minimum inhibitory concentration [3]: 0.39 µg/mL; Minimum inhibitory concentration ([4]; Bacillus subtilis): ≤ 0.05 µg/mL; Minimum inhibitory concentration ([6]; Yersinia enterocolitica IID 981): 1.56 µg/mL; Minimum inhibitory concentration ([7]; Escherichia coli NIHJ JC-2): 0.78 µg/mL; Minimum inhibitory concentration ([8]; Enterobacter cloacae IID 977): 3.13 µg/mL; Minimum inhibitory concentration ([9]; Citrobacter freundii IID 976): 1.56 µg/mL; Minimum inhibitory concentration [10]: 0.39 µg/mL; Minimum inhibitory concentration ([11]; Alcaligenes faecalis 0104002): 3.13 µg/mL; Minimum inhibitory concentration ([12]; P. morganii IID 602): 1.56 µg/mL; Minimum inhibitory concentration [13]: 1.56 µg/mL; Minimum inhibitory concentration ([14]; Proteus vulgaris 3167): 0.10 µg/mL; Minimum inhibitory concentration ([16]; Serratia marcescens IID 618): 3.13 µg/mL; Minimum inhibitory concentration [18]: 1.56 µg/mL; Minimum inhibitory concentration ([19]; Klebsiella pneumoniae IFO 3512): 0.10 µg/mL; Minimum inhibitory concentration ([20]; Shigella sonnei IID 969): 0.39 µg/mL
3 | CCCn1cc(C(=O)O)c(=O)c2cc(F)c(N3CCNCC3)c(F)c21.Cl [Example 2, 6,8-Difluoro-1,4-dihydro-4-oxo-7-(1-piperazinyl)-1-n-propylquinoline-3-carboxylic acid hydrochloride] | 0.2 | 6.25 | 3.13 | 0.2 |  |  |  | 0.78 |  | 3.13 |  | 0.39 | 1.56 |  | 0.1 |  | 1.56 | 0.2 |  |  | MIC ([5]; Pseudomonas aeruginosa, V1, Pseudomonas aeruginosa V-1): 12.5 µg/mL; MIC ([6]; IID981, Yersinia enterocolitica IID 981): 0.39 µg/mL; MIC ([7]; NIHJJC2, Escherichia coli NIHJ JC-2): ≤ 0.05 µg/mL; MIC ([9]; IID976, Citrobacter freundii IID 976): 0.2 µg/mL; MIC ([11]; Alcaligenes faecalis 0104002): 1.56 µg/mL; MIC ([14]; Proteus vulgaris 3167): ≤ 0.05 µg/mL; MIC ([16]; IID618, Serratia marcescens IID 618): 0.39 µg/mL; MIC ([19]; IFO3512, Klebsiella pneumoniae IFO 3512): 0.1 µg/mL; MIC ([20]; IID969, read-out: Minimum inhibitory concentration): 0.1 µg/mL
4 | CCn1cc(C(=O)O)c(=O)c2cc(F)c(N3CCC(N(C)C)CC3)c(F)c21 [Example 13, 1-Ethyl-6,8-difluoro-1,4-dihydro-7-(4-dimethylamino-1-piperidinyl)-4-oxoquinoline-3-carboxylic acid] | 0.2 (≈ 0.527 µM) | 25 (≈ 65.9 µM) | 0.39 (≈ 1.03 µM) | 0.1 (≈ 0.264 µM) | 12.5 (≈ 32.9 µM) | 0.78 (≈ 2.06 µM) | ≤ 0.05 |  | 0.39 (≈ 1.03 µM) | 0.39 (≈ 1.03 µM) | 6.25 (≈ 16.5 µM) | 1.56 (≈ 4.11 µM) | 0.78 (≈ 2.06 µM) | 0.1 (≈ 0.264 µM) | 0.39 (≈ 1.03 µM) | 0.78 (≈ 2.06 µM) | 0.39 (≈ 1.03 µM) | 0.78 (≈ 2.06 µM) | ≤ 0.05 | 0.1 (≈ 0.264 µM) | MIC [8, 30]: 3.13 µg/mL (≈ 8.25 µM)
5 | CCn1cc(C(=O)O)c(=O)c2cc(F)c(N3CCCC3)c(F)c21 [Example 11, 1-Ethyl-6,8-difluoro-1,4-dihydro-4-oxo-7-(1-pyrrolidinyl)quinoline-3-carboxylic acid] | 0.2 (≈ 0.621 µM) | 6.25 (≈ 19.4 µM) | 0.1 (≈ 0.31 µM) | ≤ 0.05 | 6.25 (≈ 19.4 µM) | 0.39 (≈ 1.21 µM) | 0.2 (≈ 0.621 µM) |  | 0.39 (≈ 1.21 µM) | 0.2 (≈ 0.621 µM) | 0.39 (≈ 1.21 µM) | 0.39 (≈ 1.21 µM) | 0.39 (≈ 1.21 µM) | ≤ 0.05 | 0.1 (≈ 0.31 µM) | 1.56 (≈ 4.84 µM) | 0.1 (≈ 0.31 µM) | 1.56 (≈ 4.84 µM) | ≤ 0.05 | 0.2 (≈ 0.621 µM) | MIC [8, 30]: 1.56 µg/mL (≈ 4.84 µM)

Source: US4398029A, “Quinoline carboxylic acid derivatives and process for the preparation” (Kyorin Seiyaku Kabushiki Kaisha, priority 1981, dated 1983)
